{"source": "patent US20020177166A1", "about": "“Binding motif of a receptor” (MEDVET SCIENCE PTY.LTD., priority 2000, published 2002)", "key": {"[1]": {"system": "Ser585 phosphorylation of βc in MO7e cells", "test": "Ser585 phosphorylation and 14-3-3 recruitment in MO7e cells", "format": "cell-based", "conditions": "30 μM H89 for 15 minutes prior to IL-3", "from_the_text": "(§1) The βc was immunoprecipitated and then subjected to immunoblot analysis using the anti-phospho-Ser585βc antibody. […] Immunoprecipitates were electrophoresed on a polyacrylamide gel and the amount of radiolabelled receptor immunoprecipitated was quantified using a phosphorImager.\n(§2) After various treatments, cells were lysed, βc was immunoprecipitated, and subjected to immunoblot analysis with the anti-phospho-Ser585 antibody."}, "[2]": {"system": "Ser585 phosphorylation of βc in CTL-EN cells", "test": "Ser585 phosphorylation of βc in CTL-EN cells expressing IL-3Ra and wtβc, immunoblot", "format": "cell-based", "from_the_text": "as §1, §2"}, "[3]": {"molecular_target": "T1, PKA (Homo sapiens, UniProt P17612)", "T1 construct": "substrate Hisβc445-881 expressed in bacteria", "test": "In vitro kinase assay, PKA phosphorylation of hisβc445-881 with peptide competition", "format": "biochemical", "conditions": "200 mM peptides", "protocol": "Peptide competitions were also performed using 200 mM peptides containing the indicated sequences. b) The ability of PKA and CKII to phosphorylate Ser585 of hisβc445-881 was examined by immunoblot analysis using the anti-phospho-Ser585βc antibodies. Filters were probed firstly with anti-phospho-Ser585βc antibodies (top panel). […] Cells were then lysed and βc immunoprecipitated with 1C1. Ser585 phosphorylation of βc was determined using the anti-phospho-Ser585 antibodies (top panel). The filter was then stripped and re-probed with anti βc 1C1 antibodies.\nIn an effort to identify the kinase involved in the phosphorylation of Ser585, we firstly examined the ability of several kinases to phosphorylate the purified recombinant intracellular portion of βc (hisβc445-881) in vitro. Ser585 of βc lies within a SXXD motif which is known to be a CKII consensus phosphorylation site. Ser585 also lies within a RS motif which is a possible, but poor, PKA phosphorylation site. […] Additional bands for the PKA kinase reactions were evident due to the autocatalytic activity of PKA. […] In this experiment, the non-phospho-HSRSLP peptide is likely to act as a competitive substrate for phosphorylation of Ser585 of hisβc445-881 by PKA. […]"}, "[4]": {"system": "interaction of hisβc445-881 with p85 and 14-3-3", "test": "PKA-phosphorylated hisβc445-881 Sepharose pull-down from COS-7 lysates with peptide competition", "format": "binding", "conditions": "200 mM competing peptides, 1 hour at 4° C.", "protocol": "(a) analysis of PI 3-kinase activity. […] Cells were then lysed and phospho-tyrosine containing proteins were immunoprecipitated (2×10^7 cells/IP) using the 4G10 antibody. Immunoprecipitates were washed in 1× PI 3-kinase buffer (20 mM HEPES, pH 7.5, 5 mM MgCl2, 1 mM EGTA) and PI 3-kinase activity was analysed in a lipid kinase assay using phosphatidyl inositol and g^32PATP as substrates as described in the “Materials and Methods”. Autoradiogram of TLC plate is shown with ^32P-labelled phosphatidyl inositols (PIP) and the origin indicated. […] (b) CTL-EN cells were also examined for the association of βc with p85. […] Cells were then lysed and the βc immunoprecipitated (2×10^7 cells/IP) with the 1C1 anti-βc specific mAb. Immunoprecipitates were then subjected to SDS-PAGE, transferred to nitrocellulose and immunoblotted with anti-p85 (1 mg/ml) followed by detection with HRP-conjugated anti-rabbit IgG antibody and ECL. The filters were then stripped, probed with anti-SHP2 (1 mg/ml), stripped again and finally probed with 1C1 anti-βc (2 mg/ml). […] The association of hisβc445-881 with p85 was also assessed in pull-down experiments together with peptide competition. (c) List of peptides used in the hisbβc445-881 pull-down experiment. S refers to a phospho-serine residue. […]"}, "[5]": {"system": "anti-phospho-585Ser recognition of βc", "test": "Western blot of immunoprecipitated βc with peptide-preincubated anti-phospho-585Serβc antibody", "format": "binding, human", "conditions": "100 fold molar excess of peptide", "protocol": "(§3) Lysates of HEK293T cells transfected with wild type βc were immunoprecipitated with anti-βc antibody (MAb 8E4). Immunoprecipitates were run on 7.5% SDS-PAGE under reducing conditions. […] M1 cells expressing GM-CSFRa and βc were either untreated (−) or stimulated with GM-CSF (2 ng/ml) for 30 seconds (+). Lysates of the M1 cells were immunoprecipitated with anti-βc antibody (MAb 8E4) and the immunoprecipitates run on 10% SDS-PAGE under reducing conditions.\nThese possibilities were initially addressed using ^32P-orthophosphate labelled HEK 293T cells transfected with the GM-CSF receptor (α and βc subunits). These cells were stimulated with GM-CSF, total βc was immunoprecipitated and examined for ^32P-labelling. This is most likely due to the presence of sixty serine and threonine residues in the intracellular region of βc, some of which may be constitutively phosphorylated."}, "[6]": {"molecular_target": "T2, βc association with 14-3-3ζ (Homo sapiens, UniProt P63104)", "T2 construct": "expressed in transfected cells; host or cells: HEK293T (βc)", "T2 sequence (P63104 1-245)": "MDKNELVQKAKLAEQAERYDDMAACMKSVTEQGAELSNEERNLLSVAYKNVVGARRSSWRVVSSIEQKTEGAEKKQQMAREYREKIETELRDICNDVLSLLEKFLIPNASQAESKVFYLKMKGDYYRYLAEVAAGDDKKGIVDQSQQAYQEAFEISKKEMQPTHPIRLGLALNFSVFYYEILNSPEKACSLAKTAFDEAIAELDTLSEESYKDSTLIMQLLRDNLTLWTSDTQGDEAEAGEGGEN", "test": "GST-14-3-3-sepharose precipitation of βc from transfected HEK293T lysates with peptide competition", "format": "binding", "conditions": "for inhibition of βc association with GST-14-3-3 in pull-down: peptides 100 uM", "protocol": "Lysates of HEK293T cells transfected with βc were immunoprecipitated with GST-14-3-3-sepharose in the absence or in the presence of chemically-synthesised peptides (100 uM) containing a βc sequence ([…]) or a Raf-1 sequence ([…]). In the phosphorylated peptides the relevant phosphorylated serine is underlined. The experiment was performed on 7.5% SDS-PAGE under reducing conditions. The presence of βc in the precipitation experiment was determined by Western blotting with anti-βc antibody (MAb 1C1).\nLysates of HEK293T cells transfected with βc were precipitated with GST-14-3-3-sepharose in the absence or in the presence of various concentrations of chemically-synthesised peptides. […] The appropriate phosphorylated serine in each peptide is underlined. The experiment was performed on 7.5% SDS-PAGE under reducing conditions. The presence of βc in the immunoprecipitates was determined by Western blotting with anti-βc antibody (MAb 1C1).\nCells were lysed in lysis buffer for 30 mins at 4° C. followed by centrifugation of the lysate for 15 mins at 12,000 g 4° C. […] Samples were boiled for 5 mins in SDS sample load buffer in the presence of 2-mercaptoethanol before separating precipitated proteins by SDS-PAGE.\nCell lysates were precipitated or immunoprecipitated in the presence of various concentrations of the following peptides: βc peptide sequence […] either non phosphorylated or serine phosphorylated and a scrambled peptide […]. Raf1 peptides corresponding to the sequence […] were also used and were either non phosphorylated or serine phosphorylated. The corresponding phosphorylated serine in each peptide is underlined. Peptides were synthesised by Chiron Mimotopes, Melbourne, Australia. The presence of βc in either the immunoprecipitation or precipitation experiment was determined by Western blotting with anti-βc antibody (MAb 1C1)."}, "[7]": {"system": "585Ser phosphorylation of βc in M1 myeloid leukaemic cells", "test": "585Ser phosphorylation of βc in M1 cells, immunoblot", "format": "cell-based", "conditions": "2 ng/ml GM-CSF", "protocol": "as §3"}, "[8]": {"system": "TF-1", "test": "TF-1 proliferation assay", "format": "cell-based", "conditions": "recombinant human cytokine produced in E. coli", "protocol": "Acad. Sci., 91, 5838. Cytokine purity and quantitation was determined by HPLC analysis and Coomasie staining of SDS-PAGE separated proteins."}, "[9]": {"system": "CC[C@H](C)[C@H](NC(=O)[C@H](CC(=O)O)NC(=O)[C@@H]1CCCN1C(=O)[C@H](CC(C)C)NC(=O)[C@H](CO)NC(=O)[C@H](CCCNC(=N)N)NC(=O)[C@H](CO)NC(=O)[C@H](Cc1c[nH]cn1)NC(=O)[C@@H]1CCCN1C(=O)[C@@H]1CCCN1C(=O)CNC(=O)[C@H](CC(C)C)NC(=O)[C@@H](N)CS)C(=O)N[C@@H](CC(C)C)C(=O)NCC(=O)O", "test": "purified protein, by the assay type", "conditions": "other: peptide as PKA substrate, hyperbolic regression analysis; 21.0 °C"}}, "note": "Ends that are not written are not given here.", "data": [{"compound": "O=S(=O)(NCCNC/C=C/c1ccc(Br)cc1)c1cccc2cnccc12", "note": "[H89]", "values": [{"measurement": "effect on IL-3 induced phosphorylation of Ser585", "setting": "[1]", "result": "significantly reduced the IL-3 induced phosphorylation of Ser585"}, {"measurement": "effect on IL-3 induced phosphorylation of Ser585", "setting": "[2]; 30 μM H89 for 15 minutes prior to IL-3", "result": "significantly reduced the IL-3 induced phosphorylation of Ser585"}]}, {"compound": "CCCC(=O)Nc1ncnc2c1ncn2[C@@H]1O[C@@H]2COP(=O)(O)O[C@H]2[C@H]1OC(=O)CCC", "note": "[db-cAMP, dibutyryl cAMP]", "values": [{"measurement": "Ser585 phosphorylation of βc after stimulation", "setting": "[2]; 50 ng/ml IL-3, 50 μM forskolin or 100 μM dibutyryl cAMP", "result": "increased Ser585 phosphorylation"}]}, {"compound": "CLPLSGPDSHIRGPL [scrambled peptide]", "values": [{"measurement": "effect on phosphorylation of hisβc445-881 by PKA", "setting": "[3]", "result": "did not"}, {"measurement": "effect on interaction of p85 with hisβc445-881", "setting": "[4]", "result": "had no apparent effect on this interaction"}, {"measurement": "inhibition of anti-phospho-585Ser recognition of βc", "setting": "[5]", "result": "did not"}]}, {"compound": "CLSQRQRSTSTPNVHM [nonphosphorylated Raf-1 peptide]", "values": [{"measurement": "inhibition of βc association with GST-14-3-3 in pull-down", "setting": "[6]", "result": "did not"}]}, {"compound": "CLSQRQRSTSTPNVHM [serine phosphorylated Raf-1 peptide] (also: serine phosphorylated, position not given here)", "values": [{"measurement": "inhibition of βc association with GST-14-3-3 in pull-down", "setting": "[6]", "result": "able to inhibit βc association with 14-3-3"}]}, {"compound": "CPLSLRSKPSPGPGP", "values": [{"measurement": "inhibition of βc association with 14-3-3, dose dependence and specificity", "setting": "[6]; various concentrations of peptides (FIG. 8)", "result": "failed to inhibit this association"}]}, {"compound": "GM-CSF: recombinant human GM-CSF produced in E. coli", "values": [{"measurement": "585Ser phosphorylation of βc", "setting": "[7]", "result": "strongly upregulated ^585Ser phosphorylation of βc"}, {"measurement": "ED50 in TF-1 proliferation assay", "setting": "[8]", "result": 0.03, "unit": "ng/mL"}]}, {"compound": "PKA (Homo sapiens)", "values": [{"measurement": "Km", "setting": "[9]", "result": 376, "unit": "µM"}, {"measurement": "Vmax", "setting": "[9]", "result": 250, "unit": "nmol/min/mg"}]}]}
